Where a SMILES comes first, the peptide text is derived from it. Bridges are numbered along the chain shown (N, C = ends).
molecular target: T1, epithelial sodium channels (Homo sapiens, UniProt P37088+P51168+P51170); experiment: Patch-clamp activation of sodium ion channels in A549 cells; assay type: cell-based; conditions: whole cell / cell-attached, amiloride-sensitive sodium current
T1 construct: endogenous in cells; host or cells: A549 human lung epithelial cells (ATCC CCL-185)
T1 sequence (P37088 1-669): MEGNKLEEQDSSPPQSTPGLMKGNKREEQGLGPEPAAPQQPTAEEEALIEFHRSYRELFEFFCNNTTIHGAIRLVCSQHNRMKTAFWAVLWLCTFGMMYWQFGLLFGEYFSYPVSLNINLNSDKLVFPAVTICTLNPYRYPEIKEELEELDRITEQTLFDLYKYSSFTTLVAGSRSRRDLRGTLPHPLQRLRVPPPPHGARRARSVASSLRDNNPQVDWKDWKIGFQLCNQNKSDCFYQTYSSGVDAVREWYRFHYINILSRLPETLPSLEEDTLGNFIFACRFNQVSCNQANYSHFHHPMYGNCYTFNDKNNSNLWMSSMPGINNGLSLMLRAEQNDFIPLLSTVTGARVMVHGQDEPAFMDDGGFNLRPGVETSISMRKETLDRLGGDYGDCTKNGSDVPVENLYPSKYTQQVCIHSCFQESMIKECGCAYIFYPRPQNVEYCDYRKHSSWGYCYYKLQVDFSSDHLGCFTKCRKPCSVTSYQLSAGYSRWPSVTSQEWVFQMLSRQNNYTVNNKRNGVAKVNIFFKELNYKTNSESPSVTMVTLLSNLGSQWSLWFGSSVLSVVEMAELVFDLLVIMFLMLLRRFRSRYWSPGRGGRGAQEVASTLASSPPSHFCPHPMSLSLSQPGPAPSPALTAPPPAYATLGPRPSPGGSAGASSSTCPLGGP
T1 sequence (P51168 1-640): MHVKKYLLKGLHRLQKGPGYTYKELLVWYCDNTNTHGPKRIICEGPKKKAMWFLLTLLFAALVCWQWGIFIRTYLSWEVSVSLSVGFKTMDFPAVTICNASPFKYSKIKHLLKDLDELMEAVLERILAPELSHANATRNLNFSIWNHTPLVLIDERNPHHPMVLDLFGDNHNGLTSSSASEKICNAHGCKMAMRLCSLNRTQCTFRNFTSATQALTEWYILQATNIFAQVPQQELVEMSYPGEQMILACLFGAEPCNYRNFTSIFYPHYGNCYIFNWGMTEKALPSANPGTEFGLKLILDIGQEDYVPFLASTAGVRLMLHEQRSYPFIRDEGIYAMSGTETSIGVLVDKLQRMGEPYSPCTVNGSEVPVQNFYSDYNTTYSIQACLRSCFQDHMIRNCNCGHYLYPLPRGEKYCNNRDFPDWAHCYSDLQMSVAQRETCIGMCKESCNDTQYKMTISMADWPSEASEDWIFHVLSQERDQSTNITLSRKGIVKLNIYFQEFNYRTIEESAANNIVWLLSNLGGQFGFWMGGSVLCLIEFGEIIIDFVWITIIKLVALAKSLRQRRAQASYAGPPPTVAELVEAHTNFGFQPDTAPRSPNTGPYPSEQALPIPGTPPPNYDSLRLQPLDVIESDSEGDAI
T1 sequence (P51170 1-649): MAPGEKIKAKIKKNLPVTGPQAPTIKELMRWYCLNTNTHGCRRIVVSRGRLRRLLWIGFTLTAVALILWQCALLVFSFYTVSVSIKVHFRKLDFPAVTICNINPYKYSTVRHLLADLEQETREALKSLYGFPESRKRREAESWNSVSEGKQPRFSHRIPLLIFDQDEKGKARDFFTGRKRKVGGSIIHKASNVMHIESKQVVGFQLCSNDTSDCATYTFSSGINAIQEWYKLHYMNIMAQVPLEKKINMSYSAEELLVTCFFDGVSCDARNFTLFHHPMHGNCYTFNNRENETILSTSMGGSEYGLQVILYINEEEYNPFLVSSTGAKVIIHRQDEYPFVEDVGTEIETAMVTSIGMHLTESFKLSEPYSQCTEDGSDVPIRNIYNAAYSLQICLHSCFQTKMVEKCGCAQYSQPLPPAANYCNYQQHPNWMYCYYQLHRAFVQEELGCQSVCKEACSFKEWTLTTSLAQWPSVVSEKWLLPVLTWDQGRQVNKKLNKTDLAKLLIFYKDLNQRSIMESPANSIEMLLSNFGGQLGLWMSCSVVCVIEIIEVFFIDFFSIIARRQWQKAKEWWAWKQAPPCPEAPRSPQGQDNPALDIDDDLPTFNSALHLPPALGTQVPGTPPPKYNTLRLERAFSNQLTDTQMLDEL
Excerpt: Furthermore, a method common in laboratories is to detect the activation of ion channels by means of patch-clamp experiments, and this is described, for example, in Clunes M. T. et al, J Physiol Volume 557, No. 3, 809-819 (Jun. 15, 2004). For patch-clamp examinations of ion channels, a glass cannula is stretched thin and filled with a neutral buffer solution. The glass cannula (patch-clamp pipette) is carefully pressed onto an intact epithelial cell. A piece of membrane is located below the pipette. An electrical resistance is thereby produced between the interior of the pipette and the external solution. An electrode attached to a sensitive amplifier dips into the pipette solution.
The electrophysiological experiments were performed on human A549 cells (ATTC No. CCL-185). A549 cells are human lung epithelial cells which are involved in the diffusion of water and electrolytes in the lungs.
The cells were suspended in DMEM-F-12 medium with 1% penicillin-streptomycin and 10% fetal calf serum, transferred into plastic cell culture vessels and cultivated in the incubator with 95% air and 5% CO2 at 37° C. The medium was changed 2 to 3 times per week. The cells double within approx. 22 hours and a cell concentration of more than 7×10^4 cells per cm^2 was not exceeded.
Macroscopic currents and single-channel currents were discharged from A549 cells in the “whole cell” and “cell-attached” configuration of the “patch-clamp” technique (Hamill et al, Pflugers Arch. 1981, 391(2):85-100, 1981). For the current dissipations in the “whole cell” configuration, the following bath and electrode solutions were used:
Bath solution: 135 mM sodium methane sulfonate, 10 mM NaCl, 2.7 mM KCl, 1.8 mM CaCl2, 2 mM MgCl2, 5.5 mM glucose, and 10 mM HEPES, pH 7.4. […]
The cover slips with the cells cultivated thereon were transferred into a test bath with a capacity of 1 ml, fixed on the microscope table (Axiovert 100, 400-fold magnification), and the cells were superfused with the above-described bath solution. […] In the “cell-attached” configuration, the current can be measured through individual ion channels beneath the electrode tip. In the “whole cell” configuration, the membrane was penetrated beneath the electrode tip so that the current flowing through all ion channels of the cell could be measured. […] Upon obtaining a Gigaohm seal, a defined membrane retaining potential was applied via a pre-amplifier (CV-4 Headstage, Axon Instruments) and an amplifier (Axopatch 1D, Axon Instr.) and the current thereby flowing through the ion channels was measured.
The pulse protocol consisted of a hyperpolarization to −100 mV for 1 s at an interval of 5 s. […] The current dissipations thus obtained were stored and analyzed by means of the program PCLAMP 6.0. […]

Row | Structure (SMILES) | activation of the sodium ion channels (patch clamp)
1 | CC[C@H](C)[C@H](NC(=O)[C@H](C)N)C(=O)N[C@@H](CCCCN)C(=O)N[C@@H](CO)C(=O)N1CCC[C@H]1C(=O)N[C@H]1CSSC[C@@H](C(=O)N2CCC[C@H]2C(=O)N[C@@H](CO)C(=O)N[C@H](C(=O)N[C@@H](Cc2c[nH]cn2)C(=O)N[C@H](C(=O)O)C(C)C)[C@@H](C)O)NC(=O)CNC(=O)CNC(=O)[C@H](CCCCN)NC(=O)[C@H](C)NC(=O)[C@H](CCC(=O)O)NC(=O)[C@H](C)NC(=O)CNC(=O)[C@H](CCC(=O)O)NC(=O)[C@@H]2CCCN2C(=O)[C@H]([C@@H](C)O)NC(=O)[C@H](CCC(=O)O)NC(=O)[C@H](CCCNC(=N)N)NC(=O)[C@H](CCC(N)=O)NC1=O [SEQ ID NO:1] (H-AIKSPCQRETPEGAEAKGGCPSTHV-OH; disulfide 6-20) | activation of the sodium ion channels
2 | C[C@@H]1NC(=O)CNC(=O)[C@H](CCC(=O)O)NC(=O)[C@@H]2CCCN2C(=O)[C@H]([C@@H](C)O)NC(=O)[C@H](CCC(=O)O)NC(=O)[C@H](CCCNC(=N)N)NC(=O)[C@H](CCC(N)=O)NC(=O)[C@@H](NC(=O)[C@@H]2CCCN2C(=O)[C@H](CO)NC(=O)[C@@H](N)CCCCN)CSSC[C@@H](C(=O)N2CCC[C@H]2C(=O)N[C@@H](CO)C(=O)O)NC(=O)CNC(=O)CNC(=O)[C@H](CCCCN)NC(=O)[C@H](C)NC(=O)[C@H](CCC(=O)O)NC1=O [SEQ ID NO:2] (H-KSPCQRETPEGAEAKGGCPS-OH; disulfide 4-18) | activation of the sodium ion channels
3 | C[C@@H]1NC(=O)CNC(=O)[C@H](CCC(=O)O)NC(=O)[C@@H]2CCCN2C(=O)[C@H]([C@@H](C)O)NC(=O)[C@H](CCC(=O)O)NC(=O)[C@H](CCCNC(=N)N)NC(=O)[C@H](CCC(N)=O)NC(=O)[C@@H](N)CSSC[C@@H](C(=O)O)NC(=O)CNC(=O)CNC(=O)[C@H](CCCCN)NC(=O)[C@H](C)NC(=O)[C@H](CCC(=O)O)NC1=O [SEQ ID NO:3, (NH2)Cys-Gln-Arg-Glu-Thr-Pro-Glu-Gly-Ala-Glu-Ala-Lys-Gly-Gly-Cys(COOH)] (H-CQRETPEGAEAKGGC-OH; disulfide 1-15) | activation of the sodium ion channels
